Experimental findings from BindingDB's records for patent US20240124450 (Pfizer, 2024) are described below.

Broadly, the IC50 is the concentration needed to halve the response being measured. Low values mean inhibition by little substance, high ones a need for much substance.

Common to all, as to assay: Enzyme Assay: Pan SIK MS IC50 Assay
The target in assay [1] is Serine/threonine-protein kinase SIK2 (Homo sapiens, UniProt Q9H0K1). On the procedure:
(§1) Salt Induced Kinase (SIK) activity is determined by measuring the effect of a test agent on the activity of the appropriate SIK enzyme to phosphorylate its corresponding substrate. […] The phosphorylated substrate product resulting from the kinase reaction is detected by LCMS/MS, and the area under the peak curve correlates with kinase activity. […] The plates are spun at 1000 rpm for 30 seconds to ensure compounds are at the bottom of the well before removing foil covers. 0.15 μL HPE (assay std) and ZPE (DMSO) are added to the ARP using an HP D300 dispenser. Plates are spun again at 1000 rpm for 30 seconds. […] Plates are spun at 1000 rpm for 30 seconds. Plates are then sealed and incubated at RT for 10 minutes. Following incubation, 5 μL of 5× peptide reagent is added with a Multidrop Combi and designated small volume cassette to initiate the kinase reaction. Plates are spun at 1000 rpm for 30 seconds. Plates are then sealed and incubated at RT for 90 minutes. The assay is stopped by the addition of 5 μl of 120 mM EDTA added with a Multidrop Combi and designated small volume cassette (20 mM final concentration). Plates are spun at 1000 rpm for 30 seconds. 10 μl of the final reaction mix from each of the three individual enzyme plates are transferred by a Platemate Plus to the same corresponding 96 well deepwell plate containing 70 μl Water/Methanol (85/15%) for multiplex MS detection ([…]). Using Activity Base (ABase), an idbs data analysis software tool, the reported area ratio unit data is associated to compound, batch and dose information, the data is evaluated for quality, and the percent inhibition of each well is calculated. The data from each Max effect/HPE and Min effect/ZPE control wells are assessed, and outliers are excluded from all further calculations. The mean and standard deviation of the HPE and ZPE are then calculated for each plate, along with the Z Prime. The compound data is converted into % effect, using the average ZPE and HPE controls as 0% and 100% activity, respectively.

The target of assay [2] is Serine/threonine-protein kinase SIK1 (Homo sapiens, UniProt P57059). On the procedure:
as §1

Assay [3] addresses Serine/threonine-protein kinase SIK3 (Homo sapiens, UniProt Q9Y2K2). On the procedure:
as §1

Chain of Serine/threonine-protein kinase SIK3 (Q9Y2K2 whole entry): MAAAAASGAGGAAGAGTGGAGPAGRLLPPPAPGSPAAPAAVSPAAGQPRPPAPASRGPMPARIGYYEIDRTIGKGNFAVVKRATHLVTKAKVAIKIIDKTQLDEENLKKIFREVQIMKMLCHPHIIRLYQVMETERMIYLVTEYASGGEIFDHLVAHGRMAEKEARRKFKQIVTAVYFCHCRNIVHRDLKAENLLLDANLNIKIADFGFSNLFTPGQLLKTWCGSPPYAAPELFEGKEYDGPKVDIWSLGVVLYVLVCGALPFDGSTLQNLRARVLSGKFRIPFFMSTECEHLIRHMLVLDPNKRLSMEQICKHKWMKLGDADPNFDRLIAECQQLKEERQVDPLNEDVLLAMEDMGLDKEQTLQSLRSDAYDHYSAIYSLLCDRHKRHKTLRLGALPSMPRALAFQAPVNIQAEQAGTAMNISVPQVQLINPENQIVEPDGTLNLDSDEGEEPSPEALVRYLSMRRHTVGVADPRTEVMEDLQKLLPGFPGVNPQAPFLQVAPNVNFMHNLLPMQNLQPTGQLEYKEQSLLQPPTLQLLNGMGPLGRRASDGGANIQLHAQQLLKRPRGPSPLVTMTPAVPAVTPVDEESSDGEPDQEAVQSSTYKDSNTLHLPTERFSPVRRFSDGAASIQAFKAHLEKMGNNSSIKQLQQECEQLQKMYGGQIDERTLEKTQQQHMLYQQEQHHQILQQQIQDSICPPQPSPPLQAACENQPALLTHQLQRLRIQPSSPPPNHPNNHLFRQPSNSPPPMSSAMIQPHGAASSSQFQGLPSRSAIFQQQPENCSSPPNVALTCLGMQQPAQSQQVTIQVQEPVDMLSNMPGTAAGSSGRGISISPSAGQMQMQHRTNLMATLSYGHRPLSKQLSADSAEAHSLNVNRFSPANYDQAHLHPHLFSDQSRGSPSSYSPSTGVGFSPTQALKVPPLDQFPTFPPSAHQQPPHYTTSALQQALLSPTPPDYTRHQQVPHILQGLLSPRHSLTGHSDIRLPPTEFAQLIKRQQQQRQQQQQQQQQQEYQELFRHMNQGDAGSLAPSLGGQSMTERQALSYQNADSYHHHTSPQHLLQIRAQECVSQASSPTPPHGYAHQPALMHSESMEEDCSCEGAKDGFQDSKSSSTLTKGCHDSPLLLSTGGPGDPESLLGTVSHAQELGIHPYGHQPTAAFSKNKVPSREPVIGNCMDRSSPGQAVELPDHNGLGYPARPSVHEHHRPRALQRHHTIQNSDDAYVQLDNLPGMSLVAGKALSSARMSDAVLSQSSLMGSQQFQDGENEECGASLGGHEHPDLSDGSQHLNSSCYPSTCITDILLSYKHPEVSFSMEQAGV
Chain of Serine/threonine-protein kinase SIK1 (P57059 whole entry): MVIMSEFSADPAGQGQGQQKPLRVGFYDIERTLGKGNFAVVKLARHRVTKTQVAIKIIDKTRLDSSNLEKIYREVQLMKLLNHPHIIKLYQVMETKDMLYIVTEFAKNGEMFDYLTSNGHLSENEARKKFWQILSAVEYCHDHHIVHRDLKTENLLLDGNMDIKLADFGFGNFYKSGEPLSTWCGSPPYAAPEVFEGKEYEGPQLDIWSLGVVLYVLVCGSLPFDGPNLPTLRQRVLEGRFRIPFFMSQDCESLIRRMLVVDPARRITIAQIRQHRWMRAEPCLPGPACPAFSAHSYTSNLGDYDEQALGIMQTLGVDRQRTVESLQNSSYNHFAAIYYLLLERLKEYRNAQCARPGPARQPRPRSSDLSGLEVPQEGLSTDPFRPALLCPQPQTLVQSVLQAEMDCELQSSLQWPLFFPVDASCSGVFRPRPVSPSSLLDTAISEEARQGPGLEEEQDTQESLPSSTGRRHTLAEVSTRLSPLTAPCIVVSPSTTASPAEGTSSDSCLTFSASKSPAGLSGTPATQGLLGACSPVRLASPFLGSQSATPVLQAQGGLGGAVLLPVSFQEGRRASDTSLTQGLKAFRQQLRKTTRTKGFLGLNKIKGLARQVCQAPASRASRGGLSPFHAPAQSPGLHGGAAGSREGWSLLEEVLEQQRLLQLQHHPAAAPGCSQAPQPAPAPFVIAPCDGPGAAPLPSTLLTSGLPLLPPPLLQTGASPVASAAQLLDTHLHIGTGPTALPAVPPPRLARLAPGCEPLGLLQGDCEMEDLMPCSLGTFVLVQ
Chain of Serine/threonine-protein kinase SIK2 (Q9H0K1 whole entry): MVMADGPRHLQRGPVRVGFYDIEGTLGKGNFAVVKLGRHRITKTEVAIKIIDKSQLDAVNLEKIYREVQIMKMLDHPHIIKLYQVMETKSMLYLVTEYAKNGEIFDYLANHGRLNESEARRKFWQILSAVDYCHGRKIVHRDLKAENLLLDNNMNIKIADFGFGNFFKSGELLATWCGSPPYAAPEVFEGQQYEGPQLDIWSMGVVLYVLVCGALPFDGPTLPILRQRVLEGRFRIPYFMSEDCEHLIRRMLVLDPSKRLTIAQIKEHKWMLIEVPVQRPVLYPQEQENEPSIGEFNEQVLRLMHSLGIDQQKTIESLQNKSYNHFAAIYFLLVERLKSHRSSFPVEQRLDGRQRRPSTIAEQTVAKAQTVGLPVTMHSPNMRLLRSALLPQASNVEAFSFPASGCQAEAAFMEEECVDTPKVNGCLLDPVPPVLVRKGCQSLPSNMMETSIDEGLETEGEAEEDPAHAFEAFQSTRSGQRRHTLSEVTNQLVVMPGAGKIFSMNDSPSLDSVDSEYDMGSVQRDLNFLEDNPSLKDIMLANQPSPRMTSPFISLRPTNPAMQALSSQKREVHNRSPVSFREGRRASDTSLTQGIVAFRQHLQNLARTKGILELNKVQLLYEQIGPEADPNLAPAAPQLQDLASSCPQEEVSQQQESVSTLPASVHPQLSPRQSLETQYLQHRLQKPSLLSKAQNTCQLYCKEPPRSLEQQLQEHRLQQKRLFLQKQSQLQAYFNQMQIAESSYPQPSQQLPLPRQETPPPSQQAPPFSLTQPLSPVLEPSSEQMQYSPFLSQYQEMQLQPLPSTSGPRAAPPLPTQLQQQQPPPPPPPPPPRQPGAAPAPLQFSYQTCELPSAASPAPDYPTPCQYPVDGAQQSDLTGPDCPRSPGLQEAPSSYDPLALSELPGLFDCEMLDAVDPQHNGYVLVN

As for `CSc1cc(-c2cnc3cccc(C#N)n23)cc(OC[C@@]2(N)CCC(F)(F)C2)c1C#N` (mixture of isomers) [US20240124450, Example 12], the figures for the concentration for half-maximal inhibition (IC50) in assay [1], in assay [2] and in assay [3] were 1.8 nM, 2.4 nM and 4.8 nM, respectively.
In the case of `CC[C@@H]1CCC[C@@]1(N)COc1cc(-c2cnc3cccc(OC)n23)cc(SC)c1C#N` (mixture of isomers) [US20240124450, Example 9], the IC50 in assay [2] is 0.9 nM; in assay [3] it was 2 nM.
In the case of `CC[C@@H]1CCC[C@](N)(COc2cc(-c3cnc4cccc(OC)n34)cc(OC)c2C#N)C1` [US20240124450, Example 16], the figures for the IC50 in assay [2] and in assay [3] were 0.8 nM and 1.7 nM, respectively.
